The target in data set [1] is WT BET bromodomains (BD1 and BD2 of BRD2, BRD3 and BRD4). In words: competitive AlphaLISA (Bio-JQ1 displacement). To be noted: mean and SD of all somatic bromodomains; active enantiomer concentration. The format is binding, human. For orientation: Alpha assays give light when donor and acceptor beads are brought close together.
Data set [2] has as its target BRD3 BD1 WT (Homo sapiens, UniProt Q15059). The data set can be described thus: competitive AlphaLISA. The data set is classed as binding.
Data set [3] can be described thus: in vitro. To be noted: PAMPA, pH 7.4. For orientation: In PAMPA a lipid-coated filter parts donor from acceptor wells.
Data set [4] deals with A1 (h) (Homo sapiens, UniProt P30542). In words: CEREP ExpresSProfile. Particulars: read-out: Mean % of control specific binding (±SD).
Source text: (§5) Receptor Reference Compound Mean % of control specific
Receptor & Ion-Channel Screening
CEREP ExpresSProfile panel
The target of data set [5] is 5-HT transporter (h) (Homo sapiens, UniProt P31645). The data set can be described thus: CEREP ExpresSProfile. To be noted: read-out: Mean % of control specific binding (±SD).
Data set [6] deals with delta (DOP) (h) (Homo sapiens, UniProt P41143). The data set can be described thus: CEREP ExpresSProfile. To be noted: read-out: Mean % of control specific binding (±SD).
Sequence of delta (DOP) (h) (P41143 whole entry): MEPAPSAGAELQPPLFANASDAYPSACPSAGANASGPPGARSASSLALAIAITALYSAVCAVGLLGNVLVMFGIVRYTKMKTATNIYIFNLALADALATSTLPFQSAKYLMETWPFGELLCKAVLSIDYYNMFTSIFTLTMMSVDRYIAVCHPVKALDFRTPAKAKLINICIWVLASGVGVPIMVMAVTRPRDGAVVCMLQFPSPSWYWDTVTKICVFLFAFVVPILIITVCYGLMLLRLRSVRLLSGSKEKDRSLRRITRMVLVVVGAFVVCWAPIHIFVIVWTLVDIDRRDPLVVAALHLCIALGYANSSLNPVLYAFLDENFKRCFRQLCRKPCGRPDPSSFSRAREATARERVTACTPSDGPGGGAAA
Source text: as §5
Receptor & Ion-Channel Screening
CEREP ExpresSProfile panel
Data set [7] relates to 55 receptors, transporters and ion channels. The data set can be described thus: receptor, transporter and ion channel screen. The data set is classed as binding. To be noted: 1 μM, whole panel with the exception of MT1.
Data set [8] deals with NOP (ORL1) (h) (Homo sapiens, UniProt P41146). The data set can be described thus: CEREP ExpresSProfile. To be noted: read-out: Mean % of control specific binding (±SD).
Sequence of NOP (ORL1) (h) (P41146 whole entry): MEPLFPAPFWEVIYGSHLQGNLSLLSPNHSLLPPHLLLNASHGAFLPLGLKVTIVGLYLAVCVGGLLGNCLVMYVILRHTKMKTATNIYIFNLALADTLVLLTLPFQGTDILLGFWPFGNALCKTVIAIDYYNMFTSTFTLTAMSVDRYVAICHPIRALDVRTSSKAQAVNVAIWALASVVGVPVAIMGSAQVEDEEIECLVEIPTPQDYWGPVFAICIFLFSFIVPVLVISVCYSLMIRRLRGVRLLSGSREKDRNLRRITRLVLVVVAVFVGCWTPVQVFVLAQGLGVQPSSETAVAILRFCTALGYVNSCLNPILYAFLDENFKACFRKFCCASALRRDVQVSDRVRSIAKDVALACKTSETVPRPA
In data set [9] the target is MT1 (ML1A) (h) (Homo sapiens, UniProt P48039). In words: CEREP ExpresSProfile. The format is binding.
Sequence of MT1 (ML1A) (h) (P48039 whole entry): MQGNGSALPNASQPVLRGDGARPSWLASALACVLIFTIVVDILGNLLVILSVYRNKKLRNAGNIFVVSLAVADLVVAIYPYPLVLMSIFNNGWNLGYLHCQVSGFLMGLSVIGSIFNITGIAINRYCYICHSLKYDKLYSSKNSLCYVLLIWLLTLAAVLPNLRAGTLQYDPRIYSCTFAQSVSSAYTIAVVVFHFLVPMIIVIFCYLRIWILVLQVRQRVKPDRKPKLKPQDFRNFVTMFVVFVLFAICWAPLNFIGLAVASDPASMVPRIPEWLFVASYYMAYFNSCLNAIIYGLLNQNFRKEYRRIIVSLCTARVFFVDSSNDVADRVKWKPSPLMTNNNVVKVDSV
In data set [10] the test system is BZD (central). The data set can be described thus: CEREP ExpresSProfile. The format is binding. To be noted: 1 µM.
For data set [11], the target named is EP4 (h) (Homo sapiens, UniProt P35408). The data set can be described thus: CEREP ExpresSProfile. Particulars: read-out: Mean % of control specific binding (±SD).
Sequence of EP4 (h) (P35408 whole entry): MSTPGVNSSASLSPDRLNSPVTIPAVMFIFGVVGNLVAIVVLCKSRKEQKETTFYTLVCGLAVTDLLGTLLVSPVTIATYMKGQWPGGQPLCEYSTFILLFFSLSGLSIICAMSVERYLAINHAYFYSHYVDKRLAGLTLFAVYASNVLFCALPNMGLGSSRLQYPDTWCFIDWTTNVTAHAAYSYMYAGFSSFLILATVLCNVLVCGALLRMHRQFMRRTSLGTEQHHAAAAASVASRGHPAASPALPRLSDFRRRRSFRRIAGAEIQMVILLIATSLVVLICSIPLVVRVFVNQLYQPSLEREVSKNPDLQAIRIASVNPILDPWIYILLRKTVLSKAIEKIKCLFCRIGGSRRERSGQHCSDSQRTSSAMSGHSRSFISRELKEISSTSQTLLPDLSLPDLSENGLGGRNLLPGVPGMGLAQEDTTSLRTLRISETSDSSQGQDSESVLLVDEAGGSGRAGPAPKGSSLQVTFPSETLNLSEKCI
Data set [12] deals with M2 (h) (Homo sapiens, UniProt P08172). The data set can be described thus: CEREP ExpresSProfile. To be noted: read-out: Mean % of control specific binding (±SD).
The target of data set [13] is norepinephrine transporter (h) (Homo sapiens, UniProt P23975). The data set can be described thus: CEREP ExpresSProfile. Particulars: read-out: Mean % of control specific binding (±SD).
Source text: as §5
Receptor & Ion-Channel Screening
CEREP ExpresSProfile panel
In data set [14] the target is CCR1 (h) (Homo sapiens, UniProt P32246). In words: CEREP ExpresSProfile. To be noted: read-out: Mean % of control specific binding (±SD).
In data set [15] the target is JNK1 (Homo sapiens, UniProt P45983). The data set can be described thus: kinase Express Screen. The format is biochemical. As for the experimental part:
(§1) Kinase Remaining activity
(§2) Table S9. 9-ME-1 Kinase Screen
(§3) Activity of panel of human kinases following treatment with 1 µM (2R, 3S)-7. Dundee MRC-PPU Express Screen
(§4) (http://www.kinase-screen.mrc.ac.uk/services/express-screen)

Data set [16] deals with PDK1 (Homo sapiens, UniProt O15530). In words: kinase Express Screen. The data set is classed as biochemical. As for the experimental part: as §1, §2, §3, §4
Data set [17] concerns the target CK1δ (Homo sapiens, UniProt P48730). The data set can be described thus: kinase Express Screen. The format is biochemical. As for the experimental part: as §1, §2, §3, §4
Data set [18] deals with AMPK (hum) (Homo sapiens, UniProt Q13131). The data set can be described thus: kinase Express Screen. The format is biochemical. How it is done: as §1, §2, §3, §4
For data set [19], the target named is TrkA (Homo sapiens, UniProt P04629). In words: kinase Express Screen. The format is biochemical. How it is done: as §1, §2, §3, §4
Sequence of TrkA (P04629 33-796): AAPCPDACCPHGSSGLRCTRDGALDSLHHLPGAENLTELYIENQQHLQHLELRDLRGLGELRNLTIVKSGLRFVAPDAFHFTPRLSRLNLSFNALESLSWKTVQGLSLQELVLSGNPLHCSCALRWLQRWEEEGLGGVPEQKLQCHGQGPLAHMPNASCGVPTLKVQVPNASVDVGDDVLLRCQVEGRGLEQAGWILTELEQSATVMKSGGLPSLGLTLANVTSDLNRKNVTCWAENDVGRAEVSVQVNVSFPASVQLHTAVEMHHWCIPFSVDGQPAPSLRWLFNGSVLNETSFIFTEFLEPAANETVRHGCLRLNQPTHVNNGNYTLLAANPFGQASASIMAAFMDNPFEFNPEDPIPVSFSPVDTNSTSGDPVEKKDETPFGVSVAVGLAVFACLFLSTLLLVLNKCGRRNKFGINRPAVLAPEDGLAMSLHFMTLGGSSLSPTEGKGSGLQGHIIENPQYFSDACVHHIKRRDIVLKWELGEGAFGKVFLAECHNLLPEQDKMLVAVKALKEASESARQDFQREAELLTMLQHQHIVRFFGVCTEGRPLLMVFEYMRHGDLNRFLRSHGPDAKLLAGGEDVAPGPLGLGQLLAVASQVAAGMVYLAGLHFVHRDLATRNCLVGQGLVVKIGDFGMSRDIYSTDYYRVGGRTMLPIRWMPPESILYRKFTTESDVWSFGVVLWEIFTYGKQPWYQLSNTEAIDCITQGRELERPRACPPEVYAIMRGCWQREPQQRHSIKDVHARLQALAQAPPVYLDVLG
The target in data set [20] is IRAK4 (Homo sapiens, UniProt Q9NWZ3). In words: kinase Express Screen. The data set is classed as biochemical. How it is done:
as §1, §2, §3, §4

The target of data set [21] is Aurora B (Homo sapiens, UniProt Q96GD4). The data set can be described thus: kinase Express Screen. The format is biochemical. As for the experimental part:
as §1, §2, §3, §4

In data set [22] the target is CK2 (Homo sapiens, UniProt P68400). In words: kinase Express Screen. The format is biochemical. How it is done: as §1, §2, §3, §4
For data set [23], the target named is PIM1 (Homo sapiens, UniProt P11309). In words: kinase Express Screen. The format is biochemical. How it is done:
as §1, §2, §3, §4

Data set [24] concerns the target MKK1 (Homo sapiens, UniProt Q02750). In words: kinase Express Screen. The data set is classed as biochemical. How it is done:
as §1, §2, §3, §4

In data set [25] the target is PAK4 (Homo sapiens, UniProt O96013). In words: kinase Express Screen. The format is biochemical. How it is done: as §1, §2, §3, §4
The target in data set [26] is Src (Homo sapiens, UniProt P12931). The data set can be described thus: kinase Express Screen. The data set is classed as biochemical. As for the experimental part:
as §1, §2, §3, §4

Data set [27] addresses MARK3 (Homo sapiens, UniProt P27448). The data set can be described thus: kinase Express Screen. The data set is classed as biochemical. How it is done: as §1, §2, §3, §4
Data set [28] concerns the target RSK1 (Homo sapiens, UniProt Q15418). In words: kinase Express Screen. The format is biochemical. How it is done:
as §1, §2, §3, §4

The target in data set [29] is S6K1 (Homo sapiens, UniProt P23443). The data set can be described thus: kinase Express Screen. The format is biochemical. As for the experimental part: as §1, §2, §3, §4
Data set [30] concerns the target p38a MAPK (Homo sapiens, UniProt Q16539). The data set can be described thus: kinase Express Screen. The data set is classed as biochemical. How it is done: as §1, §2, §3, §4
Data set [31] addresses PRK2 (Homo sapiens, UniProt Q16513). The data set can be described thus: kinase Express Screen. The format is biochemical. As for the experimental part: as §1, §2, §3, §4
Data set [32] concerns the target DYRK1A (Homo sapiens, UniProt Q13627). In words: kinase Express Screen. The data set is classed as biochemical. How it is done:
as §1, §2, §3, §4

The target in data set [33] is CAMK1 (Homo sapiens, UniProt Q14012). In words: kinase Express Screen. The data set is classed as biochemical. How it is done:
as §1, §2, §3, §4

Data set [34] concerns the target PKCa (Homo sapiens, UniProt P17252). In words: kinase Express Screen. The data set is classed as biochemical. How it is done:
as §1, §2, §3, §4

Data set [35] addresses HER4 (Homo sapiens, UniProt Q15303). The data set can be described thus: kinase Express Screen. The format is biochemical. How it is done: as §1, §2, §3, §4
Data set [36] addresses PLK1 (Homo sapiens, UniProt P53350). The data set can be described thus: kinase Express Screen. The data set is classed as biochemical. As for the experimental part:
as §1, §2, §3, §4

For data set [37], the target named is MST2 (Homo sapiens, UniProt Q13188). The data set can be described thus: kinase Express Screen. The format is biochemical. As for the experimental part: as §1, §2, §3, §4
The target in data set [38] is VEG-FR (Homo sapiens, UniProt P17948). In words: kinase Express Screen. The data set is classed as biochemical. As for the experimental part: as §1, §2, §3, §4
The target of data set [39] is MLK3 (Homo sapiens, UniProt Q16584). The data set can be described thus: kinase Express Screen. The data set is classed as biochemical. How it is done:
as §1, §2, §3, §4

Data set [40] concerns the target MC4 (h) (Homo sapiens, UniProt P32245). The data set can be described thus: CEREP ExpresSProfile. Particulars: read-out: Mean % of control specific binding (±SD).
Source text: as §5
Receptor & Ion-Channel Screening
CEREP ExpresSProfile panel
The target in data set [41] is GAL2 (h) (Homo sapiens, UniProt O43603). In words: CEREP ExpresSProfile. Particulars: read-out: Mean % of control specific binding (±SD).
Sequence of GAL2 (h) (O43603 whole entry): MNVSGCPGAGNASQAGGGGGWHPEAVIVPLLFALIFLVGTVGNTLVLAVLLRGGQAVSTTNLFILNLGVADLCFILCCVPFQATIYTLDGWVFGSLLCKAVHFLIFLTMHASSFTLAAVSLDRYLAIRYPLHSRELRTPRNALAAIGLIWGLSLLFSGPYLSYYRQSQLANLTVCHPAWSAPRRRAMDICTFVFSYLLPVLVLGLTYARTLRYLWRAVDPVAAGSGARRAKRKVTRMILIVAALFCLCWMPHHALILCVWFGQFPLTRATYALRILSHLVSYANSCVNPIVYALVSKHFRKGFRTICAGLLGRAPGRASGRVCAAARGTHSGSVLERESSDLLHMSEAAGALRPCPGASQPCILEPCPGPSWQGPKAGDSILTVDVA
Source text: as §5
Receptor & Ion-Channel Screening
CEREP ExpresSProfile panel
The target of data set [42] is M1 (h) (Homo sapiens, UniProt P11229). The data set can be described thus: CEREP ExpresSProfile. To be noted: read-out: Mean % of control specific binding (±SD).
For data set [43], the target named is 5-HT2B (h) (Homo sapiens, UniProt P41595). The data set can be described thus: CEREP ExpresSProfile. Particulars: read-out: Mean % of control specific binding (±SD).

Data on two molecules can be found in article PMC5909127, “Optimization of a “bump-and-hole” approach to allele-selective BET bromodomain inhibition” (Chemical Science, 2018).

Sequence of p38a MAPK (Q16539 whole entry): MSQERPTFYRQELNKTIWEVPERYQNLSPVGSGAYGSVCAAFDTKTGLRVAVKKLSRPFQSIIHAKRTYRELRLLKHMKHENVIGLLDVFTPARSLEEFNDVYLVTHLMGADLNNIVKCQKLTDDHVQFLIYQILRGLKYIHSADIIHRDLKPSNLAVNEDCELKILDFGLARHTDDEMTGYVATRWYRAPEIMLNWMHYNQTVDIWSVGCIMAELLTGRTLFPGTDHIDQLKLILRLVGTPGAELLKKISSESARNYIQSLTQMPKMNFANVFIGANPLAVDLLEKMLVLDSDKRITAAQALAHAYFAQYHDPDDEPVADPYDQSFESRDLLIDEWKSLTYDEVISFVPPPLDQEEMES
Sequence of IRAK4 (Q9NWZ3 whole entry): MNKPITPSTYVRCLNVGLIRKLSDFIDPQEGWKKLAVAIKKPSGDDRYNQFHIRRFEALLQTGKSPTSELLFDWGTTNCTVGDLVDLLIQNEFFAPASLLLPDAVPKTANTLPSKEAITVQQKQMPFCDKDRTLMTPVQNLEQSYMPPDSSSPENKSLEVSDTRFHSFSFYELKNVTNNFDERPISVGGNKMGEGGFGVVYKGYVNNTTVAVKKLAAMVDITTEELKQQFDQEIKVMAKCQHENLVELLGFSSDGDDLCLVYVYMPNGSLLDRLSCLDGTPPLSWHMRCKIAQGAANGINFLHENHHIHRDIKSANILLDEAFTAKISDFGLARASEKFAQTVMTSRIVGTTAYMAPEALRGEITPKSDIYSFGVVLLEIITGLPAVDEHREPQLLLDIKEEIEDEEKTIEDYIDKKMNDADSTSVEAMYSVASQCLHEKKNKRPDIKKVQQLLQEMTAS
Sequence of MC4 (h) (P32245 whole entry): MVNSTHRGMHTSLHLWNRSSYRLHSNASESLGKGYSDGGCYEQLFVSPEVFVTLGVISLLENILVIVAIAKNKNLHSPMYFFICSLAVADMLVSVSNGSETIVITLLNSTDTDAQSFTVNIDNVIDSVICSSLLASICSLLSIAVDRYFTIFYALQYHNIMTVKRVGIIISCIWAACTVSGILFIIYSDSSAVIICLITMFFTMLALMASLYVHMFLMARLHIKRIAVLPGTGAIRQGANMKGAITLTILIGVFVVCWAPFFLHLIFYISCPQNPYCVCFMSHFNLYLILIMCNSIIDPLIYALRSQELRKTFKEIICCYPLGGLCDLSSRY
Sequence of Aurora B (Q96GD4 whole entry): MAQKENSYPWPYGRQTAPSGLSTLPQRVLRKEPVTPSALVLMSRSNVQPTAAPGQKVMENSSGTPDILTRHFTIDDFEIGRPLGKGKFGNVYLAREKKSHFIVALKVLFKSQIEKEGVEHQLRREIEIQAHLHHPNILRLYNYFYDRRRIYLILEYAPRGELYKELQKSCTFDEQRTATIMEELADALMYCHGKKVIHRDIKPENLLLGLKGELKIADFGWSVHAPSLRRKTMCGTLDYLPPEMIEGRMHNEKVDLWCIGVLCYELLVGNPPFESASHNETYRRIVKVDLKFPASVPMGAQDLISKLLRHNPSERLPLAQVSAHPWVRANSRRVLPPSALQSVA
Sequence of RSK1 (Q15418 whole entry): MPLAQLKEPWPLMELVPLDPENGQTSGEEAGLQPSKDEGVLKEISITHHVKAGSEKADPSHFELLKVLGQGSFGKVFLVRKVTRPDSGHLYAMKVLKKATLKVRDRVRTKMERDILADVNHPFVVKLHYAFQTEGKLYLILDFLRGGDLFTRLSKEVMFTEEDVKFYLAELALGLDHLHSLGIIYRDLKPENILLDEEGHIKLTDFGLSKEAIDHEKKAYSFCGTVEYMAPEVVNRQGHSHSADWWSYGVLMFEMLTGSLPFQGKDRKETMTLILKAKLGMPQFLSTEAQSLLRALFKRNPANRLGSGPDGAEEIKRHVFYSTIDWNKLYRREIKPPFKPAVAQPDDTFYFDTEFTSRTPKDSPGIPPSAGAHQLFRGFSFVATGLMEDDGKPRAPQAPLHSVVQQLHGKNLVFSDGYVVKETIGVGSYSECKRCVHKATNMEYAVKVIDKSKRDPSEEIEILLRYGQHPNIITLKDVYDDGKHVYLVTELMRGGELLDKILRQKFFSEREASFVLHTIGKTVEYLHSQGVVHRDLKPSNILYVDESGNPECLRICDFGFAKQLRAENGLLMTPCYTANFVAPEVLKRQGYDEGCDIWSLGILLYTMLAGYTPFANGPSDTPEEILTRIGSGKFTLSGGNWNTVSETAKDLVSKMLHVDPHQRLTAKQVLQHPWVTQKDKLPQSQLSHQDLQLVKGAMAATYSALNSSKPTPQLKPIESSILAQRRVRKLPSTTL

In the case of `CC[C@@H](C(=O)OC)[C@@H]1N=C(c2ccc(Cl)cc2)c2ccc(OC)cc2-n2c(C)nnc21` (racemic) [Compound 8], in data set [1], the “AlphaLISA pIC50 ± SD WT” value is 5.5 ± 0.2. Further, the IC50 in data set [2] is 2510 nM. This molecule displayed a Papp in data set [3] of 15.5 ×10⁻⁶ cm/s.

Consider `COC(=O)[C@H](C)[C@@H]1N=C(c2ccc(Cl)cc2)c2ccc(OC)cc2-n2c(C)nnc21` [(2R,3S)-7], for which the remaining activity at 1 µM turned out to be 100% in data set [4]; 96% in data set [5]; 100% in [6]; 94% in data set [8]; 23% in data set [9] (read-out: Mean % of control specific binding (±SD)); 93% in data set [11]. Also, the remaining activity at 1 µM in data set [12] worked out at 105%; in data set [13], 88%; in data set [14], 102%; in data set [15] it was 89%; in data set [16] it was 97%; in data set [17], 93%. Also, the remaining activity at 1 µM in data set [18] was determined as 104%; in [19], 98%; in [20] it was 114%; in [21], 94%; in data set [22], 97%; in data set [23] it was 106%. In addition, the remaining activity at 1 µM in data set [24] is 89%; in data set [25], 104%; in data set [26] it was 82%; in data set [27], 94%; in data set [28], 99%; in data set [29] it was 93%. In addition, the remaining activity at 1 µM in [30] was determined as 101%; in data set [31], 100%; in data set [32], 80%; in [33], 94%; in data set [34], 96%; in data set [35], 114%. The remaining activity at 1 µM in data set [36] is 89%; in data set [37], 118%; in [38] it was 89%; in [39], 100%; in data set [40], 89%; in data set [41], 96%. Moreover, the remaining activity at 1 µM turned out to be 104% in data set [42] and 109% in data set [43]. For the same molecule, the inhibition entry in data set [7] is on record as “no more than 20%”. The molecule also gave an inhibition at 1 µM in data set [9] of 77%. Besides, the “Mean % of control specific binding (±SD)” value in data set [10] is 105 (10) %.

As a reminder, the IC50 is the concentration at which inhibition is half-maximal. High values mean weaker potency in that assay, low ones greater potency in that assay. In general, Papp refers to the rate of passage across a membrane or cell layer, normalised by area and donor concentration. Lower therefore signals poor permeation. What is called inhibition is the relative decrease from the control value, in per cent.
